From patent US8323656B2, “Antigen determinant of rheumatoid arthritis-specific autoantibody and use thereof” (priority 2007, dated 2012)

Experiments:
[1] = test system: RA-specific antibodies (4 anti-CCP2-positive sera); experiment: Indirect (inhibition) ELISA: cross-reactivity of analytes with RA-specific antibodies, immobilized CCP2 as capture antigen; type: binding, human; settings: unpublished epitope mapping studies; result in words
[2] = test system: RA-specific antibodies (4 anti-CCP2-positive sera); experiment: as above; type: binding, human; parameters: Cross-reactivity of antibodies with the named analyte: concentration or dose not given beside the values; settings: for Inhibition of antibody binding to the immobilized CCP2: FIG. 1 and 2, analyte at 50 mM, 4 sera, result in words; for Cross-reactivity (%) of RA-specific antibody, modified α-amino acid: alkylation + acetylation: acetylated amino acid methyl ester of the amino acid named; for Cross-reactivity (%) of RA-specific antibody, modified α-amino acid: acetylation: acetylated derivative of the amino acid named; for Cross-reactivity of antibodies with the named analyte: the analyte itself is named; for Cross-reactivity (%) of RA-specific antibody, α-amino acid: unmodified α-amino acid, 0 = cross-reactivity less than 1%
From the text: A complete set of 21 amino acids and their derivatives were used as analytes to determine if any analyte inhibited the action of the detector antibody in binding to the capture antigen. Determination was made by observation at the single AA level through a series of moving windows of different derivatization. Following this procedure ensures that no antigenic elements of the epitope are missed as long as the possible AA derivatives are available. The analysis began in the fluid phase, wherein initially, the detector antibody was incubated with each of the analytes. After overnight incubation at 4° C., 100 μl of analyte preadsorbed detector antibody per well were added into 96-well microplate which immobilized CCP2 on the surface, and was incubated for 1 hour at room temperature with shaking. […] The reaction was stopped by adding 100 μl of 0.5 M H2SO4 per well and the results were estimated at A450 nm.
The concept of indirect ELISA was based upon an inhibition test between an unknown amount of analyte and a known amount of immobilized antigen for a limited number of detector antibody binding-sites. If the contents of detector antibody and immobilized antigen are kept constant, the distribution of detector antibody between immobilized antigen bound detector antibody and analyte bound detector antibody is dependent upon the amount of sample analyte. The mass of immobilized antigen bound detector antibody is inversely proportional to the amount of analyte bound detector antibody.
(§1) As described in FIG. 1, Amino Acid Profiles for the Antigenic Determinant, ELISA was carried out with sera from Euro-diagnostica (serum 1) and from three patients (serum 2, 3, and 4) with RA to CCP2 positive at various concentrations of different amino acids. […] The horizontal line at 100% represents the control percent binding of the CCP2 to the antibody.
as §1, with “2, Acetylamino” for “1, Amino”, “acetylamino” for “amino”
as §1, with “3, Alkylamino” for “1, Amino”, “alkylamino” for “amino”
as §1, with “4, Acetylamino” for “1, Amino”, “Acid Methyl Ester” for “Acid”, “acetylamino acid methyl esters.” for “amino acids.”

[3] = methyl esterified (Me) derivative of the amino acid named, 0 = less than 1%

SMILES | Cross-reactivity (%) of RA-specific antibody, modified α-amino acid: alkylation + acetylation ([2]; 0 = less than 1%) | Cross-reactivity (%) of RA-specific antibody, modified α-amino acid: acetylation ([2]; 0 = less than 1%) | Cross-reactivity (%) of RA-specific antibody, modified α-amino acid: alkylation [2, 3] | Cross-reactivity of antibodies with the named analyte [2] | Cross-reactivity (%) of RA-specific antibody, α-amino acid [2] | also measured
NC(=O)NCCC[C@H](N)C(=O)O [Citrulline] | 100% | 74% | ^Me81% | zero | 0% | Binding of RA-specific antibodies [1]: does not bind; Inhibition of antibody binding to the immobilized CCP2 [2]: limited capability to inhibit; Cross-reactivity (%) of RA-specific antibody, modified α-amino acid: alkylation ([2]; butyl esterified (Be) derivative): ^Be124%; Cross-reactivity (%) of RA-specific antibody, modified α-amino acid: alkylation ([2]; ethyl esterified (Ee) derivative): ^Ee72%; Cross-reactivity (%) of RA-specific antibody, modified α-amino acid: alkylation ([2]; propyl esterified (Pe) derivative): ^Pe115%
COC(=O)C(N)CCSC (centres unmarked) [Met-Me] | – | – | – | 0% | – | –
CSCC[C@H](N)C(=O)O [Methionine] | 0% | 0% | ^Me0% | 0% | 0% | –
N[C@@H](Cc1ccccc1)C(=O)O [Phenylalanine] | 0% | 0% | ^Me0% | – | 0% | –
O=C(O)[C@@H]1CCCN1 [Proline] | 0% | 0% | ^Me0% | – | 0% | –
COC(=O)[C@@H](N)CO [Ser-Me] | – | – | – | 0% | – | –
N[C@@H](CO)C(=O)O [Serine] | 0% | 0% | ^Me0% | 0% | 0% | –
C[C@@H](O)[C@H](N)C(=O)O [Threonine] | 0% | 0% | ^Me0% | – | 0% | –
N[C@@H](Cc1c[nH]c2ccccc12)C(=O)O [Tryptophan] | 0% | 0% | ^Me0% | – | 0% | –
N[C@@H](Cc1ccc(O)cc1)C(=O)O [Tyrosine] | 0% | 0% | ^Me0% | – | 0% | –
CC(C)[C@H](N)C(=O)O [Valanine] | 0% | 0% | ^Me0% | – | 0% | –
COC(=O)[C@H](CCCNC(=N)N)NC(C)=O [acetyl-Arg-Me] | – | – | – | 13% | – | –
CC(=O)N[C@@H](CCCN=C(N)N)C(=O)O [acetyl-Arg] | – | – | – | 5% | – | Inhibition of antibody binding to the immobilized CCP2 [2]: limited inhibition
COC(=O)C(CCCNC(N)=O)NC(C)=O (centres unmarked) [acetyl-Cit-Me] | – | – | – | 100% | – | –
CC(=O)N[C@@H](CCCNC(N)=O)C(=O)O [acetyl-Cit] | – | – | – | 74% | – | Inhibition of antibody binding to the immobilized CCP2 [2]: strong inhibition
COC(=O)[C@H](CS)NC(C)=O [acetyl-Cys-Me] | – | – | – | 57% | – | –
CC(=O)N[C@@H](CS)C(=O)O [acetyl-Cys] | – | – | – | 50% | – | Inhibition of antibody binding to the immobilized CCP2 [2]: strong inhibition
COC(=O)[C@H](CCSC)NC(C)=O [acetyl-Met-Me] | – | – | – | 0% | – | –
CSCCC(NC(C)=O)C(=O)O (centres unmarked) [acetyl-Met] | – | – | – | 0% | – | –
COC(=O)[C@H](CO)NC(C)=O [acetyl-Ser-Me] | – | – | – | 0% | – | –
CC(=O)N[C@@H](CO)C(=O)O [acetyl-Ser] | – | – | – | 0% | – | –
